According to PubChem BioAssay AID1194 (EPA DSSTox, 2008):
Activity calls are given as the source filed them.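 The calls were made as follows: active = chemicals rated mutagenic or weakly mutagenic in the Salmonella bacterial test by one literature review, or positive overall by another; inconclusive = no clear call, values can overlap the other calls; inactive = the rest.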 Numbered stars: 1 amine (or outer) side, 2 acyl side, 3 side chain; on linkers, the order of the positions; unused ones are H or OH. Bridge positions count the residues as written; N and C are the ends. Square brackets hold non-standard residues; d marks the D form. Peptide text beside a SMILES is read from it. I, II: the chains in the order shown. Actinocin(9to1) = Cc1c2oc3c(C)ccc(C(=O)[*:1])c3nc-2c(C(=O)[*:2])c(N)c1=O; NMeV = CN[C@H](C(=O)O)C(C)C; Sar = CNCC(=O)O

Tested on: Salmonella typhimurium Ames mutagenicity, literature compiled
Assay: DSSTox (CPDBAS) Carcinogenic Potency Database Salmonella Mutagenicity
Description: The Carcinogenic Potency Database (CPDB) is a unique and widely used international resource of the results of over 6500 chronic, long-term animal cancer tests on over 1500 chemical substances. The CPDB provides easy access to the bioassay literature, with qualitative and quantitative analyses of both positive and negative experiments that have been published over the past 50 years in the general literature and by the National Cancer Institute/National Toxicology Program. The CPDB standardizes the diverse literature of cancer bioassays that vary widely in protocol, histopathological examination and nomenclature, and in the published author's choices of what information to provide in their papers. Results are reported in the CPDB for tests in rats, mice, hamsters, dogs, and nonhuman primates, and are based on the most positive result among all experiments for each sex-species. The DSSTox CPDBAS (all species) file incorporates data from the CPDB Summary Tables for the full list of over 1500 chemical substances tested in at least one species.
A chemical is classified within the CPDB as mutagenic, i.e. "active", in the Salmonella assay if it was evaluated overall as either "mutagenic" or "weakly mutagenic" by Zeiger [Zeiger, E. (1997) Genotoxicity Database. In: Gold and Zeiger, Eds. Handbook of Carcinogenic Potency and Genotoxicity Databases. Boca Raton, FL: CRC Press, pp. 687-729. http://potency.berkeley.edu/CRCbook.html] or as overall "positive" by the EPA Gene-Tox Program [Kier et al. (1986) Mutat. Res. 168: 69-240].

SMILES | outcome
C=C1C(CCl)(CCl)C2(Cl)C(Cl)C(Cl)C1(Cl)C2(Cl)Cl (stereo not given) | active; inactive
CC(=O)[O][Hg][c]1ccccc1 | inactive; active
Cc1cc(-c2ccc(N)c(C)c2)ccc1N | active; inactive
Nc1cc([N+](=O)[O-])ccc1O | active
COc1ccc(N)cc1 | active; inactive
Nc1cc(Cl)c(N)c(Cl)c1 | active
ClC(Cl)(Cl)Cl | inactive; active
CBr | active
C=C(C)[C@H]1CC=C(C)C(=O)C1 | inactive; active
O=C(c1ccccc1)C(O)c1ccccc1 (stereo not given) | inactive
COc1cc2c(c3oc(=O)c4c(c13)CCC4=O)C1C=COC1O2 (stereo not given) | active
Cc1ccc(C)c(N)c1 | active; inactive
CCCl | active
C/C=N/O | inactive
CCNC(=S)NCC | inactive
Cc1ccc(N=C=O)cc1N=C=O | active
CC(C)=CCl | active; inactive
Cc1ccc2c(c1N)C(=O)c1ccccc1C2=O | active
Oc1ccc2ccccc2c1N=Nc1ccccc1 | active; inactive
Cc1cccn2c1nc1ccc(N)nc12 | active
OCCN(CCO)c1nc(-c2cccs2)nc2ccccc12 | inactive
C[C@]12CC[C@@H]3c4ccc(O)cc4CC[C@H]3[C@@H]1CC[C@@H]2O | inactive
Cc1c2oc3c(C)ccc(C(=O)N[C@@H]4C(=O)N[C@H](C(C)C)C(=O)N5CCC[C@H]5C(=O)N(C)CC(=O)N(C)[C@@H](C(C)C)C(=O)O[C@@H]4C)c3nc-2c(C(=O)N[C@@H]2C(=O)N[C@H](C(C)C)C(=O)N3CCC[C@H]3C(=O)N(C)CC(=O)N(C)[C@@H](C(C)C)C(=O)O[C@@H]2C)c(N)c1=O (I: T[dV]P[Sar][NMeV] / II: T[dV]P[Sar][NMeV]; ester I:1-I:C, II:1-II:C; linker I:N-II:N via Actinocin(9to1)) | inactive; active
COc1ccc(N)c(C)c1 | active; inactive
CN(C)/N=N/c1nc[nH]c1C(N)=O | active

SMILES | outcome
Cc1ccc(N=Nc2c(O)c(S(=O)(=O)O)cc3ccc(S(=O)(=O)O)cc23)c(C)c1 | active
CC1=NN(c2ccccc2)C(=O)C1 | inactive
c1ccncc1 | inactive
O=C(OOC(=O)c1ccccc1)c1ccccc1 | inactive; active
O[C@H]([C@H](O)[C@@H](O)CBr)[C@H](O)CBr | active; inactive
O=C1C(Cl)=C(Cl)C(=O)C(Cl)=C1Cl | active
CC1(C)S[C@@H]2[C@H](NC(=O)[C@H](N)c3ccccc3)C(=O)N2[C@H]1C(=O)O | inactive
Nc1ccccc1-c1ccccc1 | active
CCCCOC(=O)c1ccc(O)cc1 | inactive; active
CNN | active; inactive
CC(C)Oc1ccccc1OC(=O)N(C)N=O | active
O=[N+]([O-])c1ccc(-c2nc(N(CCO)CCO)c3ccccc3n2)s1 | inactive; active
CCN(CC)N=O | active; inactive
Cn1c(N)nc2ncc(-c3ccccc3)cc21 | active
OB(O)O | inactive
CC1=CC(=C(c2ccc(N)cc2)c2ccc(N)cc2)C=CC1=N | active; inactive
CC(=O)OC/C=C(\C)CCC=C(C)C | inactive
CCNc1nc(Cl)nc(NC(C)C)n1 | inactive; active
ClCc1cccnc1 | active; inactive
CCNC(=O)Nc1ncc([N+](=O)[O-])s1 | active; inactive
Oc1cccc2cccnc12 | active; inactive
O=C1c2ccccc2C(=O)c2ccccc21 | active; inactive
NNC(=O)c1ccncc1 | active; inactive
ClCCl | active; inactive
CCN(CC)C(=S)S[Te](SC(=S)N(CC)CC)(SC(=S)N(CC)CC)SC(=S)N(CC)CC | inactive
